Data from patent EP4800015A1, “AZABICYCLO DERIVATIVE AND PREPARATION METHOD THEREFOR, AND USE” (Zhejiang Hisun Pharmaceutical Co., Ltd., priority 2023, dated 2025).

Legend:
[1] = target: T1, recombinant human WRN (Homo sapiens, UniProt Q14191); test: Inhibition of WRN enzyme activity (ATPase), ADP-Glo Kinase Assay; type: biochemical; settings: WRN protein 5 nM, Flap 0.1 nM, ATP 30 µM; read-out: IC50
T1 construct: purchased BPS 101264
Outline: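 ATPase activity was measured by ADP-Glo luminescence after a 10-min room-temperature reaction with 30 µM ATP and 0.1 nM Flap26 oligonucleotide substrate. The 5 nM WRN had first been exposed to compound (0.004–1000 nM) for 15 min in pH 7.5 Tris buffer with 2 mM MgCl2. IC50 values came from log-concentration regression against the DMSO control.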

[2] = tested on: SW48 cells; test: Inhibition of SW48 cell proliferation (CellTiter-Glo); type: cell-based; settings: Homo sapiens; SW48 cells (MSI-H), 120 hours
Method: The following method was used to determine the effect of the compounds of the present disclosure on SW48 cell proliferation. SW48 cells (MSI-H cells) were purchased from American ATCC cell bank and cultured in Leibovitz's L-15 medium (Gibco, catalog No. 11415064) containing 10% fetal bovine serum, 100 U penicillin, and 100 µg/mL streptomycin. Cell viability was determined by CellTiter-Glo® Luminescent Cell Viability Assay kit (Promega, catalog No. G7573).
The experiment was performed according to the steps of the kit manual, which is briefly described as follows: test compounds were first dissolved in DMSO to prepare 10 mM stock solutions, and then diluted with medium to prepare test samples, with final compound concentrations ranging from 10000 nM to 1.52 nM. Cells in logarithmic growth phase were seeded into 96-well cell culture plates at a density of 500 cells per well and cultured overnight at 37 °C in an air incubator, then test compounds were added and cultivation continued for 120 hours. After the cultivation was completed, 40 µL of CellTiter-Glo detection reagent was added to each well, shaken for 5 minutes, and then left to stand for 10 minutes. Luminescence values of each well were read on a microplate reader using Luminescence mode. The percentage inhibition at each concentration point was calculated by comparison with the control group (0.1% DMSO), and then IC50 values for the compounds for inhibition of cell proliferation were obtained using nonlinear regression analysis of compound concentration logarithm versus inhibition rate in GraphPad Prism 9 software, as shown in Table 2.
The IC50 value results of the compounds of the present disclosure are represented by A, wherein "A" indicates 1 nM < IC50 ≤ 100 nM. Table 2 IC50 data for inhibition of SW48 cell proliferation by the compounds of the present disclosure

[3] = tested on: RL95-2 cells; test: Inhibition of RL95-2 cell proliferation (CellTiter-Glo); type: cell-based; settings: Homo sapiens; RL95-2 cells (MSI-H), 120 hours
Outline: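 Proliferation IC50 derived by nonlinear regression of % inhibition against log concentration, with 0.1% DMSO wells as reference. CellTiter-Glo luminescence was read after 120 h of compound exposure (10000 nM down to 1.52 nM final) at 37 °C. MSI-H RL95-2 cells seeded at 500/well in DMEM/F12 with 10% FBS the day before.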

Measured: IC50

T1 sequence (Q14191 whole entry): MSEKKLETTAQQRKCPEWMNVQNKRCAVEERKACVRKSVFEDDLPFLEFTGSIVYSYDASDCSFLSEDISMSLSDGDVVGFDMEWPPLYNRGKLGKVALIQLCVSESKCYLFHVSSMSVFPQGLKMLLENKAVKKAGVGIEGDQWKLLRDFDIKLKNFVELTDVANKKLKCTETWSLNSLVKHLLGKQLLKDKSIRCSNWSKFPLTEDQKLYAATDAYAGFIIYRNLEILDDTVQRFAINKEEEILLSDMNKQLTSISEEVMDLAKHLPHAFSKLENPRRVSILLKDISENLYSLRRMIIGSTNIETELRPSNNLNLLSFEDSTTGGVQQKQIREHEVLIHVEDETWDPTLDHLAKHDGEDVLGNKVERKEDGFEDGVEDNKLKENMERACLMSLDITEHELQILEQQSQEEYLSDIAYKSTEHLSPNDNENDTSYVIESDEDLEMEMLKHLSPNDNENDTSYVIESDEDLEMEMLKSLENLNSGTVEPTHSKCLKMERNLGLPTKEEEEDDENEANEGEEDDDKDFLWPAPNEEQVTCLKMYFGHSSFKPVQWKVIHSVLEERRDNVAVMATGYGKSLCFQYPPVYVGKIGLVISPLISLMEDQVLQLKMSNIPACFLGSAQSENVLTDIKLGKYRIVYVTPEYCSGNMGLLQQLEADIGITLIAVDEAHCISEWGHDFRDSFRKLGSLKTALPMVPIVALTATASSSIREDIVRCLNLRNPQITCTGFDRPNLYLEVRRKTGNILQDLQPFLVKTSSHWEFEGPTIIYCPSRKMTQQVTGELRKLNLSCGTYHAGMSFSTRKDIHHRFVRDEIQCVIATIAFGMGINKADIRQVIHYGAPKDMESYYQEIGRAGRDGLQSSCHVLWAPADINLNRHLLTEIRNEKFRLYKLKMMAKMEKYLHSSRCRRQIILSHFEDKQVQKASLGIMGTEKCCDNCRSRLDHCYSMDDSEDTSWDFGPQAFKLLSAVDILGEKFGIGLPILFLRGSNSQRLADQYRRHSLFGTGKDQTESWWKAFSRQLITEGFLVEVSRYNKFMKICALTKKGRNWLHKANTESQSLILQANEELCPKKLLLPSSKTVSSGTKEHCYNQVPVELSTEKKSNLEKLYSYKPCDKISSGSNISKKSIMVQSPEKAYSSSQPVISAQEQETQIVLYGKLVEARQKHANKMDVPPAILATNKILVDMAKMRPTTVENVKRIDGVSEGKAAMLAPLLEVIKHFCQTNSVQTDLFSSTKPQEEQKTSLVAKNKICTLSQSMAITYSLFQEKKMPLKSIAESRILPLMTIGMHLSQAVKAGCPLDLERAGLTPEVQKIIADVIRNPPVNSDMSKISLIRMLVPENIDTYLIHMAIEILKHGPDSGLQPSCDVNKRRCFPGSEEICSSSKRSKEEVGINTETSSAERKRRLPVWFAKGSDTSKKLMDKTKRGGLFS

CCc1c(N2CCN(C(=O)c3ncnc(C)c3O)CC2)c(=O)n2nc(C3=CC4CCC3C4)nc2n1CC(=O)Nc1ccc(S(F)(F)(F)(F)F)cc1 (stereo not drawn) [Example 118, 2-(2-(bicyclo[2.2.1]hept-2-en-2-yl)-5-ethyl-6-(4-(5-hydroxy-6-methylpyrimidine-4-carbonyl)piperazin-1-yl)-7-oxo-[1,2,4]triazolo[1,5-a]pyrimidin-4(7H)-yl)-N-(4-(pentafluoro-λ^6-sulfaneyl)phenyl)acetamide]
1 to 100 nM: all assays above

CCc1c(N2CCN(C(=O)c3ncnc(C)c3O)CC2)c(=O)n2nc(C3=CCCCCC3)nc2n1CC(=O)Nc1ccc(C(F)(F)F)cc1C [Example 47, 2-(2-(cyclohept-1-en-1-yl)-5-ethyl-6-(4-(5-hydroxy-6-methylpyrimidine-4-carbonyl)piperazin-1-yl)-7-oxo-[1,2,4]triazolo[1,5-a]pyrimidin-4(7H)-yl)-N-(2-methyl-4-(trifluoromethyl)phenyl) acetamide]
1 to 100 nM: all assays above

CCc1c(N2CCN(C(=O)c3ncnc(C)c3O)CC2)c(=O)n2nc(C=C3CCC3)nc2n1CC(=O)Nc1ccc(S(F)(F)(F)(F)F)cc1 [Example 53, 2-(2-(cyclobutylidenemethyl)-5-ethyl-6-(4-(5-hydroxy-6-methylpyrimidine-4-carbonyl)piperazin-1-yl)-7-oxo-[1,2,4]triazolo[1,5-a]pyrimidin-4(7H)-yl)-N-(4-(pentafluoro-λ^6-sulfaneyl)phenyl)ace tamide]
1 to 100 nM: all assays above

CCc1c(N2CCN(C(=O)c3ncccc3O)CC2)c(=O)n2nc(C3=CC4CC(C)(O)CC4C3)nc2n1CC(=O)Nc1ccc(C(F)(F)F)cc1Cl (stereo not drawn) [Example 164, N-(2-chloro-4-(trifluoromethyl)phenyl)-2-(5-ethyl-2-(5-hydroxy-5-methyl-1,3a,4,5,6,6a-hexahydropentalen-2-yl)-6-(4-(3-hydroxypicolinoyl)piperazin-1-yl)-7-oxo-[1,2,4]triazolo[1,5-a]pyrimidin-4(7H)-yl)acetamide]
1 to 100 nM: all assays above

CCc1c(C2=CCN(C(=O)c3ncnc(C)c3O)CC2)c(=O)n2nc(-c3ccc4c(c3)CCO4)nc2n1CC(=O)Nc1ccc(C(F)(F)F)cc1Cl [Example 149, N-(2-chloro-4-(trifluoromethyl)phenyl)-2-(2-(2,3-dihydrobenzofuran-5-yl)-5-ethyl-6-(1-(5-hydroxy-6-methylpyrimidine-4-carbonyl)-1,2,3,6-tetrahydropyridin-4-yl)-7-oxo-[1,2,4]triazolo[1,5-a]pyrimidin-4(7H)-yl)acetamide]
1 to 100 nM: all assays above

[2H]C([2H])([2H])n1ccc2cc(-c3nc4n(CC(=O)Nc5ccc(C(F)(F)F)cc5Cl)c(CC)c(N5CCN(C(=O)c6ncnc(C)c6O)CC5)c(=O)n4n3)ccc21 [Example 185, N-(2-chloro-4-(trifluoromethyl)phenyl)-2-(5-ethyl-6-(4-(5-hydroxy-6-methylpyrimidine-4-carbonyl)piperazin-1-yl)-2-(1-(methyl-d3)-1H-indol-5-yl)-7-oxo-[1,2,4]triazolo[1,5-a]pyrimidin-4(7H)-yl)acetamide]
1 to 100 nM: all assays above

CCc1c(N2CCN(C(=O)c3ncnc(C)c3O)CC2)c(=O)n2nc(-c3ccc4c(c3)CCO4)nc2n1CC(=O)Nc1ccc(S(F)(F)(F)(F)F)cc1C [Example 88, 2-(2-(2,3-dihydrobenzofuran-5-yl)-5-ethyl-6-(4-(5-hydroxy-6-methylpyrimidine-4-carbonyl)piperazin-1-yl)-7-oxo-[1,2,4]triazolo[1,5-a]pyrimidin-4(7H)-yl)-N-(2-methyl-4-(pentafluoro-λ^6-sulfaneyl)phenyl)acetamide]
1 to 100 nM: all assays above

CCc1c(N2CCN(C(=O)c3ncnc(C)c3O)CC2)c(=O)n2nc(-c3ccc4c(cnn4C)c3)nc2n1CC(=O)Nc1ccc(C(F)(F)F)cc1Cl [Example 113, N-(2-chloro-4-(trifluoromethyl)phenyl)-2-(5-ethyl-6-(4-(5-hydroxy-6-methylpyrimidine-4-carbonyl)piperazin-1-yl)-2-(1-methyl-1H-indazol-5-yl)-7-oxo-[1,2,4]triazolo[1,5-a]pyrimidin-4(7H)-yl) acetamide]
1 to 100 nM: all assays above

CCc1c(N2CCN(C(=O)c3ncnc(C)c3O)CC2)c(=O)n2nc(C3=CC4COCC4C3)nc2n1CC(=O)Nc1ccc(C(F)(F)F)cc1Cl (stereo not drawn) [Example 161, N-(2-chloro-4-(trifluoromethyl)phenyl)-2-(5-ethyl-6-(4-(5-hydroxy-6-methylpyrimidine-4-carbonyl)piperazin-1-yl)-7-oxo-2-(3,3a,4,6a-tetrahydro-1H-cyclopenta[c]furan-5-yl)-[1,2,4]triazolo[1,5-a]pyrimidin-4(7H)-yl)acetamide]
1 to 100 nM: all assays above

CCc1c(N2CCN(C(=O)c3ncnc(C)c3O)CC2)c(=O)n2nc(-c3ccc4cn[nH]c4c3)nc2n1CC(=O)Nc1ccc(C(F)(F)F)cc1Cl [Example 156, N-(2-chloro-4-(trifluoromethyl)phenyl)-2-(5-ethyl-6-(4-(5-hydroxy-6-methylpyrimidine-4-carbonyl)piperazin-1-yl)-2-(1H-indazol-6-yl)-7-oxo-[1,2,4]triazolo[1,5-a]pyrimidin-4(7H)-yl)acetamide]
1 to 100 nM: all assays above

CCc1c(N2CCN(C(=O)c3ncnc(C)c3O)CC2)c(=O)n2nc(-c3nc4ccccc4s3)nc2n1CC(=O)Nc1ccc(C(F)(F)F)cc1Cl [Example 133, 2-(2-(benzo[d]thiazol-2-yl)-5-ethyl-6-(4-(5-hydroxy-6-methylpyrimidine-4-carbonyl)piperazin-1-yl)-7-oxo-[1,2,4]triazolo[1,5-a]pyrimidin-4(7H)-yl)-N-(2-chloro-4-(trifluoromethyl)phenyl)acetamide]
1 to 100 nM: all assays above

CCc1c(N2CCN(C(=O)c3ncnc(C)c3O)CC2)c(=O)n2nc(-c3ccc4c(c3)COC4)nc2n1CC(=O)Nc1ccc(C(F)(F)F)cc1Cl [Example 129, N-(2-chloro-4-(trifluoromethyl)phenyl)-2-(2-(1,3-dihydroisobenzofuran-5-yl)-5-ethyl-6-(4-(5-hydroxy-6-methylpyrimidine-4-carbonyl)piperazin-1-yl)-7-oxo-[1,2,4]triazolo[1,5-a]pyrimidin-4(7 H)-yl)acetamide]
1 to 100 nM: all assays above

CCc1c(N2CCN(C(=O)c3ncnc(C)c3O)CC2)c(=O)n2nc(-c3ccc4n[nH]cc4c3)nc2n1CC(=O)Nc1ccc(C(F)(F)F)cc1Cl [Example 112, N-(2-chloro-4-(trifluoromethyl)phenyl)-2-(5-ethyl-6-(4-(5-hydroxy-6-methylpyrimidine-4-carbonyl)piperazin-1-yl)-2-(1H-indazol-5-yl)-7-oxo-[1,2,4]triazolo[1,5-a]pyrimidin-4(7H)-yl)acetamide]
1 to 100 nM: all assays above
